In US20160367623A1, “AGONISTS OF GUANYLATE CYCLASE USEFUL FOR THE TREATMENT OF GASTROINTESTINAL DISORDERS, INFLAMMATION, CANCER AND OTHER DISORDERS” (priority 2015, published 2016):
Bridge positions count the residues as written; N and C are the ends. Ends that are not written are not given here.

System: patients with chronic idiopathic constipation (CIC)
Test: Second phase 3 CIC trial: CSBM weekly responders by week
Type: in vivo, human
Settings: MRA
Excerpt: Both trials include a two-week pre-treatment baseline period, a 12-week treatment period, and a two-week post-treatment period. The phase 3 CIC program was designed to support regulatory submission in the U. S.
The primary endpoint for both trials is the proportion of durable overall responders (%), which is the current regulatory endpoint required for U.S. approval in CIC. The FDA has defined a durable overall responder as a patient who fulfills both ≧3 complete spontaneous bowel movements (CSBMs) per week plus an increase of ≧1 CSBM from baseline in the same week, for 9 out of the 12 treatment weeks. In addition, the same patient must be an overall responder for at least 3 of the last 4 treatment weeks in order to be considered a durable overall responder.
Patients were selected using Rome 3 criteria modified for CIC and had (1) fewer than 3 defecations per week, (2) loose stools occurring rarely without laxatives, (3) inadequate criteria for irritable bowel syndrome with constipation (IBS-C), and (4) at least two of the following applied to at least 25% of defecations: (a) straining during evacuation, (b) lumpy or hard stools, (c) sensation of anorectal obstruction or blockage. Rome 3 requires patients to fulfill the criteria for the last 3 months with symptom onset at least 6 months prior to diagnosis.

[1] = Week 9, Active Combined, ITT Population-Excluding Duplicate Patients
[2] = Week 9, Active Combined, ITT Population
[3] = Week 10, 3 mg, ITT Population-Excluding Duplicate Patients
[4] = Week 10, 6 mg, ITT Population-Excluding Duplicate Patients
[5] = Week 10, Active Combined, ITT Population-Excluding Duplicate Patients
[6] = Week 10, Active Combined, ITT Population
[7] = Week 11, 3 mg, All Randomized (includes Duplicate Patients)
[8] = Week 11, 3 mg, ITT Population-Excluding Duplicate Patients
[9] = Week 11, 6 mg, All Randomized (includes Duplicate Patients)
[10] = Week 11, 6 mg, ITT Population-Excluding Duplicate Patients
[11] = Week 11, Active Combined, All Randomized (includes Duplicate Patients)
[12] = Week 11, Active Combined, ITT Population-Excluding Duplicate Patients
[13] = Week 11, Active Combined, ITT Population
[14] = Week 12, 3 mg, All Randomized (includes Duplicate Patients)
[15] = Week 12, 3 mg, ITT Population-Excluding Duplicate Patients
[16] = Week 12, 6 mg, All Randomized (includes Duplicate Patients)
[17] = Week 12, 6 mg, ITT Population-Excluding Duplicate Patients
[18] = Week 12, Active Combined, All Randomized (includes Duplicate Patients)
[19] = Week 12, Active Combined, ITT Population-Excluding Duplicate Patients
[20] = Week 12, Active Combined, ITT Population

Asn^1-Asp^2-Glu^3-Cys^4-Glu^5-Leu^6-Cys^7-Val^8-Asn^9-Val^10-Ala^11-Cys^12-Thr^13-Gly^14-Cys^15-Leu^16 (NDECELCVNVACTGCL; disulfide 4-12, 7-15) [Plecanatide, uroguanylin analogue, guanylate cyclase-C agonist; (C4:C12, C7:C15) bicycle peptide]
Odds Ratio (adjusted) (Week 9, 6 mg vs placebo, ITT Population): 0.727
CSBM Weekly Responders, n (%) [1]: 286 (32.6) n (%)
Non-Responders, n (%) [1]: 591 (67.4) n (%)
CSBM Weekly Responders, n (%) [2]: 288 (32.3) n (%)
Non-Responders, n (%) [2]: 604 (67.7) n (%)
Difference in Proportions (adjusted) (Week 10, 3 mg minus placebo, All Randomized (includes Duplicate Patients)): 0.067
Odds Ratio (adjusted) (Week 10, 3 mg vs placebo, All Randomized (includes Duplicate Patients)): 0.708
Non-Responders, n (%) (Week 10, 3 mg, All Randomized (includes Duplicate Patients)): 328 (69.8) n (%)
CSBM Weekly Responders, n (%) (Week 10, 3 mg, ITT Population): 137 (30.9) n (%)
Non-Responders, n (%) (Week 10, 3 mg, ITT Population): 306 (69.1) n (%)
CSBM Weekly Responders, n (%) [3]: 136 (31.3) n (%)
Non-Responders, n (%) [3]: 298 (68.7) n (%)
Difference in Proportions (adjusted) (Week 10, 6 mg minus placebo, All Randomized (includes Duplicate Patients)): 0.097
Odds Ratio (adjusted) (Week 10, 6 mg vs placebo, All Randomized (includes Duplicate Patients)): 0.619
Non-Responders, n (%) (Week 10, 6 mg, All Randomized (includes Duplicate Patients)): 315 (66.9) n (%)
CSBM Weekly Responders, n (%) (Week 10, 6 mg, ITT Population): 154 (34.3) n (%)
Non-Responders, n (%) (Week 10, 6 mg, ITT Population): 295 (65.7) n (%)
CSBM Weekly Responders, n (%) [4]: 153 (34.5) n (%)
Non-Responders, n (%) [4]: 290 (65.5) n (%)
Non-Responders, n (%) (Week 10, Active Combined, All Randomized (includes Duplicate Patients)): 643 (68.3) n (%)
Difference in Proportions (adjusted) (Week 10, 3 mg minus placebo, ITT Population-Excluding Duplicate Patients): 0.064
Difference in Proportions (adjusted) (Week 10, 3 mg minus placebo, ITT Population): 0.062
Odds Ratio (adjusted) (Week 10, 3 mg vs placebo, ITT Population-Excluding Duplicate Patients): 0.729
Odds Ratio (adjusted) (Week 10, 3 mg vs placebo, ITT Population): 0.734
Difference in Proportions (adjusted) (Week 10, 6 mg minus placebo, ITT Population-Excluding Duplicate Patients): 0.096
Difference in Proportions (adjusted) (Week 10, 6 mg minus placebo, ITT Population): 0.096
Odds Ratio (adjusted) (Week 10, 6 mg vs placebo, ITT Population-Excluding Duplicate Patients): 0.630
Odds Ratio (adjusted) (Week 10, 6 mg vs placebo, ITT Population): 0.629
CSBM Weekly Responders, n (%) [5]: 289 (33.0) n (%)
Non-Responders, n (%) [5]: 588 (67.0) n (%)
CSBM Weekly Responders, n (%) [6]: 291 (32.6) n (%)
Non-Responders, n (%) [6]: 601 (67.4) n (%)
Difference in Proportions (adjusted) (Week 11, 3 mg minus placebo, All Randomized (includes Duplicate Patients)): 0.089
Odds Ratio (adjusted) (Week 11, 3 mg vs placebo, All Randomized (includes Duplicate Patients)): 0.643
CSBM Weekly Responders, n (%) [7]: 153 (32.6) n (%)
Non-Responders, n (%) [7]: 317 (67.4) n (%)
CSBM Weekly Responders, n (%) (Week 11, 3 mg, ITT Population): 147 (33.2) n (%)
Non-Responders, n (%) (Week 11, 3 mg, ITT Population): 296 (66.8) n (%)
CSBM Weekly Responders, n (%) [8]: 147 (33.9) n (%)
Non-Responders, n (%) [8]: 287 (66.1) n (%)
Difference in Proportions (adjusted) (Week 11, 6 mg minus placebo, All Randomized (includes Duplicate Patients)): 0.082
Odds Ratio (adjusted) (Week 11, 6 mg vs placebo, All Randomized (includes Duplicate Patients)): 0.664
CSBM Weekly Responders, n (%) [9]: 150 (31.8) n (%)
Non-Responders, n (%) [9]: 321 (68.2) n (%)
CSBM Weekly Responders, n (%) (Week 11, 6 mg, ITT Population): 145 (32.3) n (%)
Non-Responders, n (%) (Week 11, 6 mg, ITT Population): 304 (67.7) n (%)
CSBM Weekly Responders, n (%) [10]: 144 (32.5) n (%)
Non-Responders, n (%) [10]: 299 (67.5) n (%)
CSBM Weekly Responders, n (%) [11]: 303 (32.2) n (%)
Non-Responders, n (%) [11]: 638 (67.8) n (%)
Difference in Proportions (adjusted) (Week 11, 3 mg minus placebo, ITT Population-Excluding Duplicate Patients): 0.089
Difference in Proportions (adjusted) (Week 11, 3 mg minus placebo, ITT Population): 0.086
Odds Ratio (adjusted) (Week 11, 3 mg vs placebo, ITT Population-Excluding Duplicate Patients): 0.649
Odds Ratio (adjusted) (Week 11, 3 mg vs placebo, ITT Population): 0.654
Difference in Proportions (adjusted) (Week 11, 6 mg minus placebo, ITT Population-Excluding Duplicate Patients): 0.076
Difference in Proportions (adjusted) (Week 11, 6 mg minus placebo, ITT Population): 0.078
Odds Ratio (adjusted) (Week 11, 6 mg vs placebo, ITT Population-Excluding Duplicate Patients): 0.690
Odds Ratio (adjusted) (Week 11, 6 mg vs placebo, ITT Population): 0.68
CSBM Weekly Responders, n (%) [12]: 291 (33.2) n (%)
Non-Responders, n (%) [12]: 586 (66.8) n (%)
CSBM Weekly Responders, n (%) [13]: 292 (32.7) n (%)
Non-Responders, n (%) [13]: 600 (67.3) n (%)
Difference in Proportions (adjusted) (Week 12, 3 mg minus placebo, All Randomized (includes Duplicate Patients)): 0.068
Odds Ratio (adjusted) (Week 12, 3 mg vs placebo, All Randomized (includes Duplicate Patients)): 0.711
CSBM Weekly Responders, n (%) [14]: 145 (30.9) n (%)
Non-Responders, n (%) [14]: 325 (69.1) n (%)
CSBM Weekly Responders, n (%) (Week 12, 3 mg, ITT Population): 140 (31.6) n (%)
Non-Responders, n (%) (Week 12, 3 mg, ITT Population): 303 (68.4) n (%)
CSBM Weekly Responders, n (%) [15]: 140 (32.3) n (%)
Non-Responders, n (%) [15]: 294 (67.7) n (%)
Difference in Proportions (adjusted) (Week 12, 6 mg minus placebo, All Randomized (includes Duplicate Patients)): 0.088
Odds Ratio (adjusted) (Week 12, 6 mg vs placebo, All Randomized (includes Duplicate Patients)): 0.647
CSBM Weekly Responders, n (%) [16]: 155 (32.9) n (%)
Non-Responders, n (%) [16]: 316 (67.1) n (%)
CSBM Weekly Responders, n (%) (Week 12, 6 mg, ITT Population): 151 (33.6) n (%)
Non-Responders, n (%) (Week 12, 6 mg, ITT Population): 298 (66.4) n (%)
CSBM Weekly Responders, n (%) [17]: 150 (33.9) n (%)
Non-Responders, n (%) [17]: 293 (66.1) n (%)
CSBM Weekly Responders, n (%) [18]: 300 (31.9) n (%)
Non-Responders, n (%) [18]: 641 (68.1) n (%)
Difference in Proportions (adjusted) (Week 12, 3 mg minus placebo, ITT Population-Excluding Duplicate Patients): 0.066
Difference in Proportions (adjusted) (Week 12, 3 mg minus placebo, ITT Population): 0.062
Odds Ratio (adjusted) (Week 12, 3 mg vs placebo, ITT Population-Excluding Duplicate Patients): 0.724
Odds Ratio (adjusted) (Week 12, 3 mg vs placebo, ITT Population): 0.737
Difference in Proportions (adjusted) (Week 12, 6 mg minus placebo, ITT Population-Excluding Duplicate Patients): 0.082
Difference in Proportions (adjusted) (Week 12, 6 mg minus placebo, ITT Population): 0.082
Odds Ratio (adjusted) (Week 12, 6 mg vs placebo, ITT Population-Excluding Duplicate Patients): 0.673
Odds Ratio (adjusted) (Week 12, 6 mg vs placebo, ITT Population): 0.672
CSBM Weekly Responders, n (%) [19]: 290 (33.1) n (%)
Non-Responders, n (%) [19]: 587 (66.9) n (%)
CSBM Weekly Responders, n (%) [20]: 291 (32.6) n (%)
Non-Responders, n (%) [20]: 601 (67.4) n (%)
